Assay [1] concerns erythrocytes. The assay is described as follows: Activity to improve the deformation of erythrocytes (time to pass through millipore filter). It is filed as cell-based, male New Zealand rabbit. The note with it: rabbit washed erythrocytes treated with Ca^2+ and ionofore A-23187; 5 μm millipore filter. The protocol:
A suspension of washed erythrocytes was prepared from a blood collected by heart puncture from a male New Zealand rabbit having a body weight of about 3 kg and having Heparin added thereto, by using a Krebs-Henseleit solution containing 20 mM of HEPES. […] As a control drug, W-7 was used.

The target of assay [2] is T1, Ca^2 + Channel (Cavia porcellus, UniProt O35505).
T1 construct: The cecum string of a male Hartley guinea pig; from tissue; host or cells: isolated cecum string (taenia caeci) of male Hartley guinea pig
T1 sequence (O35505 whole entry): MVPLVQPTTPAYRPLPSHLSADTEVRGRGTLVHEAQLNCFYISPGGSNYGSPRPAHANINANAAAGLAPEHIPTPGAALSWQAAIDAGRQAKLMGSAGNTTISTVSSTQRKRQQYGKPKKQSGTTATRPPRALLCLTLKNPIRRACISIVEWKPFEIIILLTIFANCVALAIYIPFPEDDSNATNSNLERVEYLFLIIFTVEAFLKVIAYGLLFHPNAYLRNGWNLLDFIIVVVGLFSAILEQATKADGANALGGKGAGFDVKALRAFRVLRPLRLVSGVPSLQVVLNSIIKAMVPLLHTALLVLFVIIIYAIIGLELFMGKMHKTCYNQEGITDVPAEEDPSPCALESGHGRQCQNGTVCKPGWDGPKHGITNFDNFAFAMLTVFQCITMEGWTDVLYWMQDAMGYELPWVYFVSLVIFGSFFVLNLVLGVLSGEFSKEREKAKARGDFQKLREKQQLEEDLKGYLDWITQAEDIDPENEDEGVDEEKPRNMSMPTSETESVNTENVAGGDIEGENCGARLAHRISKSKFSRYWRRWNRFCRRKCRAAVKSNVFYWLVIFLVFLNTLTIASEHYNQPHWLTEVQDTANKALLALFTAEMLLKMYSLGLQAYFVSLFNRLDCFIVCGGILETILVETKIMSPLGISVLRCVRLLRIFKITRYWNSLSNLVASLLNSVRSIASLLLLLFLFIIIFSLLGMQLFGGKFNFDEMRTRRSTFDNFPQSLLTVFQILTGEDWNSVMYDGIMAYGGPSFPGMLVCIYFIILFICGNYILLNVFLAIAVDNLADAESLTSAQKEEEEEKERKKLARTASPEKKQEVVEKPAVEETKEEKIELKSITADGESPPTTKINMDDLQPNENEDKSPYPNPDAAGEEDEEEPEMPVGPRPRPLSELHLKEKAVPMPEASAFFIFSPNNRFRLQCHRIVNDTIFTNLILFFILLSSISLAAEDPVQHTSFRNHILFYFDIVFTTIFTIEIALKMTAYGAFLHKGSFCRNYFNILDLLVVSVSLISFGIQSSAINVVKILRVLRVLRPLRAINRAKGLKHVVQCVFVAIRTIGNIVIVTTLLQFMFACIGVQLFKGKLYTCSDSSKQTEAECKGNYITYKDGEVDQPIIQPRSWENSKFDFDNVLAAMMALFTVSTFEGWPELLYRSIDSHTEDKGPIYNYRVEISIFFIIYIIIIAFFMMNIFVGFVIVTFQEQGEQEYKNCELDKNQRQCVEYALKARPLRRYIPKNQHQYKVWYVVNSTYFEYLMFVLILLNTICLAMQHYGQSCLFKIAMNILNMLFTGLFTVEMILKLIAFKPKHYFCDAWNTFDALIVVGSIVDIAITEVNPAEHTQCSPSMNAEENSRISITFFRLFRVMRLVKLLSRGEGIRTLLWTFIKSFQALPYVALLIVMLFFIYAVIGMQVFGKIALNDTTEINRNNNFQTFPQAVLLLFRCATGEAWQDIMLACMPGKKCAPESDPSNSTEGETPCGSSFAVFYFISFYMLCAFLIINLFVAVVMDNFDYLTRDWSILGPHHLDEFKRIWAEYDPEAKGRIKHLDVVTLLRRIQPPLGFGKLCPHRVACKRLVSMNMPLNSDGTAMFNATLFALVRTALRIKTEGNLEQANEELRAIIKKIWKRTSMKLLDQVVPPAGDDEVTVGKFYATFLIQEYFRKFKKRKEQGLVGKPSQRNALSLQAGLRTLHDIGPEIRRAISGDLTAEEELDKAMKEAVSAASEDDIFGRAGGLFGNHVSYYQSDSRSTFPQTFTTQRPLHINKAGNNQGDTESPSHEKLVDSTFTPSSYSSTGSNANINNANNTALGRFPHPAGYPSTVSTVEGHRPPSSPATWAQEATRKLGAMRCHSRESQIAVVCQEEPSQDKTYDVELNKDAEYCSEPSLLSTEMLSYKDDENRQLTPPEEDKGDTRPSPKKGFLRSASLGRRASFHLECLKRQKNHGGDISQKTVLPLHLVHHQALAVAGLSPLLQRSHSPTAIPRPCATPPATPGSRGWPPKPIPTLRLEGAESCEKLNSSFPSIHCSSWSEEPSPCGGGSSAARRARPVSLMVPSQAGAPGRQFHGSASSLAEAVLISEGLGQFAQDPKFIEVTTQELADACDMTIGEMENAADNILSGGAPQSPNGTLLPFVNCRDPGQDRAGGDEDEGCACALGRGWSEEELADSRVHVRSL
Put plainly: Calcium channel antagonism (isolated guinea pig cecum string, calcium chloride concentration reaction curve). It is filed as cell-based, male Hartley guinea pig. The note with it: high potassium Krebs solution, 32° C, pretreatment 30 minutes, read-out: Ca^2 + Channel antagonism (pA2) (converted). The protocol:
The cecum string of a male Hartley guinea pig having a body weight of 350 g was taken out, and while air was supplied,.it was hanged with a load of 0.5 g in a high potassium Krebs solution bath (32° C) having calcium removed. Calcium chloride was accumulatively added, and the reaction was recorded by means of an isotonic tranduser (manufactured by Nippon Koden K. K.) to obtain a constant standard concentration reaction curve.
On the other hand, pretreatment with a compound of the present invention was conducted for 30 minutes, and then calcium chloride was added to the reaction bath, and from concetration reaction curve thereby obtained, pA2 was obtained.

For assay [3], the target named is T2, bovine cerebral calmodulin (Bos taurus, UniProt P62157).
T2 construct: bovine cerebral calmodulin; from tissue; host or cells: bovine brain (calmodulin); bovine myocardium (PDE)
Put plainly: Calmodulin antagonism (inhibition of 5'-AMP formation by calmodulin-stimulated c-AMP-PDE). The assay is classed as biochemical. The text has this: As a control drug, W-7 [N-(6-aminohexyl)-5-chloro-1-naphthalenesulfonamide]was used.

Where [4] appears, read: 50 m units bovine cerebral calmodulin, 0.1 mM Ca^2+, 1 μM c-AMP, 0.875 m units bovine myocardial c-AMP-PDE, read-out: Calmodulin antagonism IC50.

The values that follow come from patent US4971985A, “Pyridylketoxime ether compound and pharmaceutical composition containing it” (Kaken Pharmaceutical Co., Ltd., priority 1988, dated 1990).

Counter-ions that a name gives are not always drawn. Like-named read-outs stand apart in the source and are kept apart here.

With `c1ccc(CCON=C(c2cccnc2)c2cccs2)cc1` [Compound 66], the “Activity to improve the deformation of erythrocytes [pass through time (sec.)]” value (from here on “Activity to improve the deformation”) in assay [1] turned out to be 17 s. The Kb in assay [2] was 525 nM.

For `Clc1ccccc1C(=NOCCc1ccccc1)c1cccnc1` [Compound 58], in assay [1], the “Activity to improve the deformation” value was found to be 12 s. Besides, it took 3500 nM to reach half-maximal inhibition in assay [3] (IC50).

`c1ccc(OCCON=C(c2ccccc2)c2cccnc2)cc1` [Compound 26, O-[(2-phenoxy)ethyl]-phenyl-3-pyridylketoxime]: the “Activity to improve the deformation” value in assay [1] was found to be 18 s. The Kb in assay [2] was 234 nM. In assay [3] (setting [4]), the IC50 (commonly the concentration that gives 50% inhibition) came to 10000 nM.

As to `Fc1cccc(C(=NOCCc2ccccc2)c2cccnc2)c1` [Compound 63], the “Activity to improve the deformation” value in assay [1] was 18 s. The Kb in assay [2] was 603 nM. The IC50 in assay [3] (setting [4]) came to 5000 nM.

Turning to `FC(F)(F)c1cccc(C(=NOCCc2ccccc2)c2cccnc2)c1` [Compound 64], the “Activity to improve the deformation” value in assay [1] stood at 16 s. In assay [2], the Kb was 871 nM. Moreover, the IC50 in assay [3] (setting [4]) is 6500 nM.

On to `c1ccc(C(=NOCc2cccc3ccccc23)c2cccnc2)cc1` [Compound 20, O-(1-naphthylmethyl)-phenyl-3-pyridylketoxime], for which, in assay [1], the “Activity to improve the deformation” value was 20 s. For the same molecule, the Kb in assay [2] was 525 nM.

Turning to `Cc1ccc(C)c(C(=NOCCc2ccccc2)c2cccnc2)c1` [Compound 62], in assay [1], the “Activity to improve the deformation” value was 18 s. For the same molecule, the Kb in assay [2] was 933 nM. The IC50 in assay [3] (setting [4]) amounted to 8000 nM.

For the molecule `Cc1ccccc1CCON=C(c1ccccc1)c1cccnc1` [Compound 43, O-[2-(2-methylphenyl)ethyl]-phenyl-3-pyridylketoxime], the “Activity to improve the deformation” value in assay [1] turned out to be 14 s. For the same molecule, in assay [2], the Kb was 479 nM. In addition, in assay [3] (setting [4]), the IC50 came to 4100 nM.

Turning to `Clc1ccccc1CCON=C(c1ccccc1)c1cccnc1` [Compound 46], in assay [1], the “Activity to improve the deformation” value was 18 s. For the same molecule, the IC50 in assay [3] (setting [4]) was 8800 nM.

For the molecule `COc1ccc(CON=C(c2ccccc2)c2cccnc2)cc1OC` [Compound 14, O-(3,4-dimethoxybenzyl)-phenyl-3-pyridiylketoxime], the “Activity to improve the deformation” value in assay [1] came out at 15 s. For the same molecule, the Kb in assay [2] is 437 nM. The IC50 in assay [3] (setting [4]) turned out to be 8000 nM.

`Clc1ccc(C(=NOCCc2ccccc2)c2cccnc2)cc1` [Compound 57]: the “Activity to improve the deformation” value in assay [1] came out at 20 s. In addition, in assay [3], the IC50 amounted to 9500 nM.

As for `COc1ccc(CON=C(c2ccccc2)c2ccccn2)cc1OC` [Compound 13, O-(3,4-dimethoxybenzyl)-phenyl-2-pyridylketoxime], the “Activity to improve the deformation” value in assay [1] is 16 s. Besides, the Kb in assay [2] is 148 nM.

Take `c1ccc(CCON=C(c2ccccc2)c2cccnc2)cc1` [Compound 1, O-(2-phenylethyl)-phenyl-3-pyridylketoxime]: in assay [1], the “Activity to improve the deformation” value is 12 s. Moreover, the Kb in assay [2] was 275 nM. The IC50 in assay [3] (setting [4]) worked out at 3800 nM.

With `NCCCCCCNS(=O)(=O)c1cccc2c(Cl)cccc12` [Compound W-7, N-(6-aminohexyl)-5-chloro-1-naphthalenesulfonamide, reference compound], in assay [1], the “Activity to improve the deformation” value came out at 25 s.

On to `CNc1ccc2oc(C[C@H]3O[C@@]4(CC[C@H]3C)O[C@H]([C@H](C)C(=O)c3ccc[nH]3)[C@H](C)C[C@H]4C)nc2c1C(=O)O` [Calcium salt of A 23187, reference compound], for which the “Activity to improve the deformation” value in assay [1] stood at 39 s.

For `O=[N+]([O-])c1cccc(C(=NOCCc2ccccc2)c2cccnc2)c1` [Compound 65], the “Activity to improve the deformation” value in assay [1] stood at 18 s. In addition, the Kb in assay [2] was 692 nM.

In the case of `Clc1cccc(CCON=C(c2ccccc2)c2cccnc2)c1` [Compound 47], the “Activity to improve the deformation” value in assay [1] amounted to 15 s. Further, the IC50 in assay [3] (setting [4]) is 6300 nM.
